These results are taken from patent US20210345656A1, “HIGH NICOTINE ABSORPTION” (Fertin Pharma A/S, priority 2017, published 2021).

The conditions of the data set: nicotine concentration increased from 100 microgram/mL to 14,000 microgram/mL.

With `CN1CCCC1c1cccnc1` (stereo not shown) [nicotine], the “Change of permeability of nicotine across the buccal mucosa” value is recorded as “decrease of about a factor of two”.
